Measurements: patent EP0540676B1, “PEPTIDE COMPOUNDS HAVING GROWTH HORMONE RELEASING ACTIVITY” (POLYGEN HOLDING CORPORATION, priority 1990, dated 1994)
“And” between values parts separate entries of the source, which are not always exact repeats. Equal values may be shown once. Where a SMILES comes first, the peptide text is derived from it. [ ]: non-standard residue; d: D form.

Tested on: GH Release
Test: In vivo GH release in pentobarbital anesthetized rats (serum GH by RIA)
Details: for GH Released by Compound in Column A: Table 4, pentobarbital anesthetized rats; for GH Released by Compound in Column A / GH Released Serum GH ng/ml ± SEM (N=6): sacrificed 10 minutes after final injection; for GH Released by Compound in Column A / GH Released: mean ± SEM, six rats; for GH Released: Table 5, anesthetized rats; for activity compared with peptides having another residue in the A₂ position: in words, summary of Tables 3, 4, 5 and 6, rats; for GH Released Serum GH ng/ml ± SEM (N=6): Table 6, pentobarbital anesthetized rats (table title)
Experimental: Immature female Sprague-Dawley rats were obtained from the Charles River Laboratories (Wilmington, MA). After arrival they were housed at 25 °C with a 14:10 hour light:dark cycle. Water and Purina rat chow were available ad libitum. Pups were kept with their mothers until 21 days of age.
Twenty-six day old rats, six rats per treatment group, were anesthetized interperitoneally with 50 mg/Kg of pentobarbital 20 minutes prior to i.v. treatment with peptide. Normal saline with 0.1% gelatin was the vehicle for intravenous (i.v.) injections of the peptides. The anesthetized rats, weighing 55-65 grams, were injected i.v. with the quantity of growth hormone releasing compounds indicated in Tables 3, 4 and 5. Injection was made as a 0.2 mL solution into the jugular vein.
All animals were sacrificed by guillotine 10 minutes after the final test injection (see Tables 3 and 4). Trunk blood for the determination of blood GH levels was collected following decapitation. After allowing the blood to clot, it was centrifuged and the serum was separated from the clot. Serum was kept fozen until the day of sampling for radioimmunasay (RIA) determination of growth hormone levels according to the following procedure, as developed by the National Institute of Arthritis, Diabetes and Digestive and Kidney Diseases (NIADDK).
Reagents are generally added to the RIA analysis tubes at a single sitting, at refrigerator temperature (about 4 °C) in the following sequence: • (a) buffer, • (b) "cold" (i.e., non-radioactive) standard or unknown serum sample to be analyzed, • (c) radio-iodinated growth hormone antigen, and • (d) growth hormone antiserum. Reagent addition is generally carried out so that there is achieved a final RIA tube dilution of about 1:30,000 (antiserum to total liquid volume; vol:vol).
The mixed reagents are then typically incubated at room temperature (about 25 °C) for about 24 hours prior to addition of a second antibody (e.g., goat or rabbit anti-monkey gamma globulin serum) which binds to and causes precipitation of the complexed growth hormone anti serum. Precipitated contents of the RIA tubes are then analyzed for the number of counts in a specified period of time in a gamma scintillation counter. A standard curve is prepared by plotting number of radioactive counts versus growth hormone (GH) level. GH levels of unknowns are then determined by reference to the standard curve.
Serum GH was measured by RIA with reagents provided by the National Hormone and Pituitary Program.
Serum levels in Tables 3, 4, 5 and 6 are recorded in ng/mL in terms of the rat GH standard of 0.61 International Units/mg (IU/mg). Data is recorded as the mean +/- standard error of the mean (SEM). Statistical analysis was performed with Student's t-test. NS means the difference was not statistically significant. In Tables 3, 4, 5 and 6 the results shown are the average of studies with six rats.

[1] = Total Dose 0.3 µg, several experiments with different controls
[2] = Total Dose 1.0 µg, several experiments with different controls

C[C@H](N)C(=O)N[C@@H](Cc1c[nH]cn1)C(=O)N1CCC[C@@H]1C(=O)N[C@@H](C)C(=O)N[C@@H](Cc1c[nH]c2ccccc12)C(=O)N[C@H](Cc1ccccc1)C(=O)N[C@@H](CCCCN)C(N)=O [AlaHisDProAlaTrpDPheLysNH₂] (HELM PEPTIDE1{A.H.[dP].A.W.[dF].K.[am]}$$$$V2.0)
GH Released by Compound in Column A (Total Dose .3 µg i.v.): 262 ± 51 ng/mL

C[C@H](NC(=O)[C@@H](Cc1cccc2ccccc12)NC(=O)[C@@H](N)Cc1c[nH]cn1)C(=O)N[C@@H](Cc1c[nH]c2ccccc12)C(=O)N[C@H](Cc1ccccc1)C(=O)N[C@@H](CCCCN)C(N)=O [His-D^αNal-Ala-Trp-DPhe-Lys-NH₂] (HELM PEPTIDE1{H.[O=C([C@@H](Cc1cccc2ccccc12)N[*:1])[*:2]].A.W.[dF].K.[am]}$$$$V2.0)
GH Released (Total Dose 1.0 µg i.v.): 1130 ± 179 ng/mL
GH Released (Total Dose 3.0 µg i.v.): 2319 ± 139 ng/mL
GH Released (Total Dose .1 µg i.v.): 280 ± 70 ng/mL
GH Released (Total Dose .3 µg i.v.): 439 ± 122 ng/mL

C[C@H](NC(=O)[C@@H](CC(=O)O)NC(=O)[C@@H](N)Cc1c[nH]cn1)C(=O)N[C@@H](Cc1c[nH]c2ccccc12)C(=O)N[C@H](Cc1ccccc1)C(=O)N[C@@H](CCCCN)C(N)=O [His-DAsp-Ala-Trp-DPhe-Lys-NH₂] (HELM PEPTIDE1{H.[dD].A.W.[dF].K.[am]}$$$$V2.0)
GH Released (Total Dose 1.0 µg i.v.): 154 ± 63 ng/mL
GH Released (Total Dose 3.0 µg i.v.): 155 ± 34 ng/mL
GH Released (Total Dose 10.0 µg i.v.): 163 ± 44 ng/mL
GH Released (Total Dose 30.0 µg i.v.): 224 ± 62 ng/mL
GH Released (Total Dose 100.0 µg i.v.): 178 ± 83 ng/mL

C[C@H](NC(=O)[C@@H](Cc1ccc2ccccc2c1)NC(=O)[C@@H](N)Cc1c[nH]cn1)C(=O)N[C@@H](Cc1c[nH]c2ccccc12)C(=O)N[C@H](Cc1ccccc1)C(=O)N[C@@H](CCCCN)C(N)=O [His-D^βNal-Ala-Trp-DPhe-Lys-NH₂] (HELM PEPTIDE1{H.[O=C([C@@H](Cc1ccc2ccccc2c1)N[*:1])[*:2]].A.W.[dF].K.[am]}$$$$V2.0)
activity compared with peptides having another residue in the A₂ position: more active than compounds having DTrp, D^αNal, DAsp, and DCys (SMe) in the A₂ position

C[C@H](N)C(=O)N[C@@H](Cc1c[nH]cn1)C(=O)N[C@H](Cc1ccccc1)C(=O)N[C@@H](C)C(=O)N[C@@H](Cc1c[nH]c2ccccc12)C(=O)N[C@H](Cc1ccccc1)C(=O)N[C@@H](CCCCN)C(N)=O [AlaHisDPheAlaTrpDPheLysNH₂] (HELM PEPTIDE1{A.H.[dF].A.W.[dF].K.[am]}$$$$V2.0)
GH Released by Compound in Column A (Total Dose .3 µg i.v.): 616 ± 74 ng/mL

C[C@H](NC(=O)[C@@H](N)Cc1c[nH]cn1)C(=O)N[C@H](Cc1c[nH]c2ccccc12)C(=O)N[C@@H](C)C(=O)N[C@@H](Cc1c[nH]c2ccccc12)C(=O)N[C@H](Cc1ccccc1)C(=O)N[C@@H](CCCCN)C(N)=O [His-Ala-DTrp-Ala-Trp-DPhe-Lys-NH₂] (HELM PEPTIDE1{H.A.[dW].A.W.[dF].K.[am]}$$$$V2.0)
GH Released (Total Dose 1.0 µg i.v.): 830 ± 103 ng/mL
GH Released (Total Dose 3.0 µg i.v.): 2588 ± 341 ng/mL
GH Released (Total Dose .3 µg i.v.): 261 ± 32 ng/mL

C[C@H](N)C(=O)N[C@@H](Cc1c[nH]cn1)C(=O)N[C@H](Cc1ccc2ccccc2c1)C(=O)N[C@@H](C)C(=O)N[C@@H](Cc1c[nH]c2ccccc12)C(=O)N[C@H](Cc1ccccc1)C(=O)N[C@@H](CCCCN)C(N)=O [Ala-His-DβNal-Ala-Trp-DPhe-Lys-NH₂, Ala-His-D^βNal-Ala-Trp-DPhe-Lys-NH₂] (HELM PEPTIDE1{A.H.[O=C([C@@H](Cc1ccc2ccccc2c1)N[*:1])[*:2]].A.W.[dF].K.[am]}$$$$V2.0)
GH Released Serum GH ng/ml ± SEM (N=6) (Total Dose 0.1 µg, several experiments with different controls): 822 ± 243 ng/mL and 610 ± 90 ng/mL
GH Released Serum GH ng/ml ± SEM (N=6) [1]: 1418 ± 302 ng/mL and 1746 ± 318 ng/mL and 1549 ± 292 ng/mL and 1140 ± 187 ng/mL
GH Released Serum GH ng/ml ± SEM (N=6) [2]: 2201 ± 269 ng/mL and 2610 ± 176 ng/mL and 2180 ± 284 ng/mL and 2909 ± 257 ng/mL
GH Released Serum GH ng/ml ± SEM (N=6) (Total Dose 3.0 µg): 3686 ± 436 ng/mL
activity compared with peptides having another residue in the A₂ position: more active than the equivalent DTrp compound

C[C@H](NC(=O)[C@@H](Cc1c[nH]c2ccccc12)NC(=O)[C@@H](N)Cc1c[nH]cn1)C(=O)N[C@@H](Cc1c[nH]c2ccccc12)C(=O)N[C@H](Cc1ccccc1)C(=O)N[C@@H](CCCCN)C(N)=O [His-DTrp-Ala-Trp-DPhe-Lys-NH₂] (HELM PEPTIDE1{H.[dW].A.W.[dF].K.[am]}$$$$V2.0)
GH Released (Total Dose 1.0 µg i.v.): 1531 ± 303 ng/mL
GH Released (Total Dose 3.0 µg i.v.): 2349 ± 267 ng/mL
GH Released (Total Dose .1 µg i.v.): 512 ± 43 ng/mL
GH Released (Total Dose .3 µg i.v.): 566 ± 114 ng/mL

C[C@H](N)C(=O)N[C@H](Cc1ccc2ccccc2c1)C(=O)N[C@@H](C)C(=O)N[C@@H](Cc1c[nH]c2ccccc12)C(=O)N[C@H](Cc1ccccc1)C(=O)N[C@@H](CCCCN)C(N)=O [Ala-DβNal-Ala-Trp-DPhe-Lys-NH₂] (HELM PEPTIDE1{A.[O=C([C@@H](Cc1ccc2ccccc2c1)N[*:1])[*:2]].A.W.[dF].K.[am]}$$$$V2.0)
GH Released Serum GH ng/ml ± SEM (N=6) [1]: 363 ± 73 ng/mL
GH Released Serum GH ng/ml ± SEM (N=6) [2]: 1450 ± 294 ng/mL
GH Released Serum GH ng/ml ± SEM (N=6) (Total Dose 3.0 µg): 2072 ± 208 ng/mL
GH Released Serum GH ng/ml ± SEM (N=6) (Total Dose 10.0 µg): 2698 ± 369 ng/mL

C[C@H](N)C(=O)N[C@@H](Cc1c[nH]cn1)C(=O)N[C@H](Cc1c[nH]cn1)C(=O)N[C@@H](C)C(=O)N[C@@H](Cc1c[nH]c2ccccc12)C(=O)N[C@H](Cc1ccccc1)C(=O)N[C@@H](CCCCN)C(N)=O [AlaHisDHisAlaTrpDPheLysNH₂] (HELM PEPTIDE1{A.H.[dH].A.W.[dF].K.[am]}$$$$V2.0)
GH Released by Compound in Column A (Total Dose .3 µg i.v.): 268 ± 54 ng/mL

C[C@H](N)C(=O)N[C@@H](Cc1c[nH]cn1)C(=O)N[C@H](Cc1c[nH]c2ccccc12)C(=O)N[C@@H](C)C(=O)N[C@@H](Cc1c[nH]c2ccccc12)C(=O)N[C@H](Cc1ccccc1)C(=O)N[C@@H](CCCCN)C(N)=O [AlaHisDTrpAlaTrpDPheLysNH₂] (HELM PEPTIDE1{A.H.[dW].A.W.[dF].K.[am]}$$$$V2.0)
GH Released by Compound in Column A (Total Dose .3 µg i.v.): 901 ± 21 ng/mL

C[C@H](NC(=O)[C@@H](Cc1ccccc1)NC(=O)[C@H](Cc1c[nH]c2ccccc12)NC(=O)[C@H](C)NC(=O)[C@@H](Cc1ccc2ccccc2c1)NC(=O)[C@@H](N)Cc1c[nH]cn1)C(=O)N[C@@H](CCCCN)C(N)=O [His-D^βNal-Ala-Trp-DPhe-Ala-Lys-NH₂] (HELM PEPTIDE1{H.[O=C([C@@H](Cc1ccc2ccccc2c1)N[*:1])[*:2]].A.W.[dF].A.K.[am]}$$$$V2.0)
GH Released (Total Dose 1.0 µg i.v.): 1593 ± 359 ng/mL
GH Released (Total Dose 3.0 µg i.v.): 3337 ± 583 ng/mL
GH Released (Total Dose .1 µg i.v.): 484 ± 89 ng/mL
GH Released (Total Dose .3 µg i.v.): 971 ± 241 ng/mL

C[C@H](NC(=O)[C@@H](Cc1ccccc1)NC(=O)[C@H](Cc1c[nH]c2ccccc12)NC(=O)[C@H](C)NC(=O)[C@@H](Cc1c[nH]c2ccccc12)NC(=O)[C@@H](N)Cc1c[nH]cn1)C(=O)N[C@@H](CCCCN)C(N)=O [His-DTrp-Ala-Trp-DPhe-Ala-Lys-NH₂] (HELM PEPTIDE1{H.[dW].A.W.[dF].A.K.[am]}$$$$V2.0)
GH Released (Total Dose 1.0 µg i.v.): 1965 ± 366 ng/mL
GH Released (Total Dose 3.0 µg i.v.): 4553 ± 670 ng/mL
GH Released (Total Dose .1 µg i.v.): 420 ± 105 ng/mL
GH Released (Total Dose .3 µg i.v.): 900 ± 163 ng/mL

CSC[C@@H](NC(=O)[C@@H](N)Cc1c[nH]cn1)C(=O)N[C@@H](C)C(=O)N[C@@H](Cc1c[nH]c2ccccc12)C(=O)N[C@H](Cc1ccccc1)C(=O)N[C@@H](CCCCN)C(N)=O [His-DCys(SMe)-Ala-Trp-DPhe-Lys-NH₂] (H-H[dC](Me)AW[dF]K-NH2)
GH Released (Total Dose 1.0 µg i.v.): 193 ± 28 ng/mL
GH Released (Total Dose 3.0 µg i.v.): 180 ± 34 ng/mL
GH Released (Total Dose .3 µg i.v.): 178 ± 28 ng/mL
